pEC50, pIC50: −log10 of the molar value. Calls of active or inactive are those of the source.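 How the source made its calls: active means compounds giving half or more protection of infected cells from virus-caused growth loss, again on retest; inactive means the rest.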
System: CEM cells HIV-1 protection, formazan growth assay
Assay: NCI AIDS Antiviral Assay
Details: for pIC50: measured here: growth of uninfected CEM cells
Outline: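 Five concentrations of each compound were applied to infected and uninfected human CEM cells. Protection from HIV-1 was judged from growth measured with a soluble formazan assay.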

Row | SMILES | pEC50 | pIC50 | outcome
1 | Cc1c2oc3c(C)ccc(C(=O)NC4C(=O)NC(C(C)C)C(=O)N5CCCC[C@H]5C(=O)N(C)CC(=O)N(C)[C@@H](C(C)C)C(=O)OC4C)c3nc-2c(C(=O)NC2C(=O)N[C@H](C(C)C)C(=O)N3CCCC[C@H]3C(=O)N(C)CC(=O)N(C)C(C(C)C)C(=O)OC2C)c(N)c1=O (some centres undefined) | < 5.70 | 8.48 | 
2 | CC(=O)Nn1cnc(C(=N)C#N)c1N | < 3.70 | < 3.70 | 
3 | Cc1cc(N(CCC#N)S(C)(=O)=O)ccc1C=O | < 3.03 | < 3.03 | 
4 | O=[N+]([O-])c1ccc2cnn(CN3CCCCC3)c2c1 | < 3.70 | 4.05 | 
5 | COC(=O)C(Cc1nc2ccccc2[nH]c1=O)/C(=N\NC(C)(C)C)C(=O)Nc1c(C)cc(Br)cc1C (centres undefined) | < 4.19 | 4.32 | 
6 | Cc1cc(=O)[nH]c2c1C(=O)c1c(C)cc(=O)n(C)c1C2=O | < 5.70 | 6.59 | 
7 | CC1=CC(O)(c2ccccc2)C(N2CCOCC2)N1O (centres undefined) | < 3.70 | < 3.70 | 
8 | Cc1ccc(S(=O)(=O)/C(C#N)=C\N2CCNC2=S)cc1 | < 3.70 | < 3.70 | 
9 | Cc1cc(C)cc(NC(=O)CCC(=O)C2CCC/C2=N\NC(=O)C(=O)NN)c1 (centres undefined) | < 4.17 | < 4.17 | 
10 | COC(=O)C1=CCC[C@H]2C1(C)CCC(C)C21CC(c2ccoc2)OC1=O (some centres undefined) | < 4.00 | 4.29 | 
11 | COc1ccccc1/C=C1\SC(=S)N(/C=C2\C(=O)Oc3ccccc3C2=O)C1=O | < 3.70 | 4.56 | 
12 | CCOC(=O)C(NCc1ccccc1)(NC(=O)c1ccccc1)C(F)(F)F (centres undefined) |  |  | inactive
13 | O=C(Nc1ccc(S(=O)(=O)c2ccc(NC(=O)c3ccc(N=Nc4cc(S(=O)(=O)O)c5cccnc5c4O)cc3S(=O)(=O)O)cc2)cc1)c1ccc(N=Nc2cc(S(=O)(=O)O)c3cccnc3c2O)cc1S(=O)(=O)O | 5.42 | 4.03 | 
14 | CC(C)(C)C1=CP(=O)(c2ccccc2)C=C(C(C)(C)C)N1 | < 3.70 | < 3.70 | 
15 | O=C(C[P+](c1ccccc1)(c1ccccc1)c1ccccc1)C[P+](c1ccccc1)(c1ccccc1)c1ccccc1 | < 3.70 | 6.12 | 
16 | CC1C2(C)OC(=N)C(C#N)(C(c3ccccc3)O2)C1(C#N)C#N (centres undefined) | < 3.70 | 4.97 | 
17 | CCCCCCCCCCCCS(=O)(=O)O (tested in a mixture with another compound) | < 3.70 | 3.97 | 
18 | COc1ccc(N2C(=O)c3cccnc3S2(=O)=O)cc1 | < 3.70 | < 3.70 | 
19 | O=[N+]([O-])c1ccc(N=Cc2ccccc2O)cc1 | < 3.70 | 5.05 | 
20 | Cc1n(CC(C)C)c2c([n+]1CC(=O)c1ccc([N+](=O)[O-])cc1)C(=O)c1ccccc1C2=O | < 5.31 | 7.54 | 
21 | Cc1nc(N)c2cnn(C)c2n1 | < 2.82 | 3.15 | 

Row | SMILES | pEC50 | pIC50 | outcome
22 | CC1=N/C(=C\c2ccccc2Br)C(=O)O1 | < 4.01 | < 4.01 | 
23 | C/C=C1\C=[N+]([O-])C2CC1C(C(=O)OC)C13C[C@@H](OC)OC21Nc1ccccc13 (some centres undefined) |  |  | inactive
24 | CCOP(=O)(OCC)/C(C#N)=C/c1c[nH]c2ccccc12 | < 3.70 | 3.75 | 
25 | O=P(c1ccccc1)(c1ccccc1)c1ccc2c(c1)OCCOCCOCCOCCO2 | < 3.70 | < 3.70 | 
26 | c1ccc2c(c1)SCCCS2 | < 4.40 | < 4.40 | 
27 | C=C1[C@@H]2CCC(C)(C)[C@H]1CCC(=O)[C@@H]2C(=O)OC | < 3.57 | 3.60 | 
28 | CCOCc1c(C(=O)NCCO)[n+](=O)c2ccccc2n1[O-] | < 4.35 | < 4.35 | 
29 | CC1(C)CC2(S(=O)(=O)c3ccccc3)ON1CC2S(=O)(=O)c1ccccc1 (centres undefined) |  |  | inactive
30 | Cc1cn([C@H]2[C@@H](CO)C[C@H]2O)c(=O)[nH]c1=O | < 3.70 | < 3.70 | 
31 | CC(=O)Oc1ccc(N2C(=O)C3c4[nH]c5ccccc5c4C4CCC(C(C)(C)C)CC4C3C2=O)cc1 (centres undefined) | < 3.70 | 5.01 | 
32 | CCOC(=O)c1nc2c(C)nc(N(C)C)nc2n(C)c1=O | < 3.70 | < 3.70 | 
33 | Cc1cc(Br)cc(C)c1NC(=O)C(=O)C(C(=O)c1ccncc1)C1OC(=O)c2ccccc21 (centres undefined) | < 3.47 | < 3.47 | 
34 | CCN(CC)CCSc1c2ccccc2nc2c(OC)ccc(OC)c12 |  |  | inactive
35 | CC(C)(C)C#C[P+](c1ccccc1)(c1ccccc1)c1ccccc1 | < 5.70 | 7.92 | 
36 | NC(CCCCCP(=O)(O)O)C(=O)O (centres undefined) | < 3.70 | < 3.70 | 
37 | C/C(=N\NC(N)=S)c1ccc2c(c1)OCO2 |  |  | inactive
38 | C=CC(C)(C)c1c(OC(C)=O)cc2oc3c(OC(C)=O)c(OC(C)=O)cc(CC=C(C)C)c3c(=O)c2c1O | < 3.70 | 3.92 | 
39 | CC(C)[C@@H]1CC[C@@H](C)C[C@H]1OC(=O)/C=C1/C2C=CC(O2)C1C(=O)O[C@@H]1C[C@H](C)CC[C@H]1C(C)C (some centres undefined) | < 3.70 | < 3.70 | 
40 | CC(=O)NC1=NC(=O)/C(=C/c2ccccc2Cl)N1C | < 3.70 | < 3.70 | 
41 | COc1cc(C(=O)/C=C/c2ccccc2O)ccc1O | < 3.88 | 3.99 | 
42 | COc1cccc(CCCNC(=O)Cc2ccccc2CO)c1 | < 3.70 | < 3.70 | 

Row | SMILES | pEC50 | pIC50 | outcome
43 | COc1ccc2nc(N/N=C/c3sccc3C)cc(C)c2c1 | < 3.70 | 4.76 | 
44 | O=c1[nH]cnc(O)c1N=Nc1ccc(/C=C/c2ccc(N=Nc3c(O)nc[nH]c3=O)cc2S(=O)(=O)O)c(S(=O)(=O)O)c1 | < 4.20 | < 4.20 | 
45 | CCOCC(CN(CC)CC)N(CC)CC(=O)Nc1c(C)cccc1C (centres undefined) | < 3.70 | 5.38 | 
46 | CCN(CC)C(=S)SCn1ncc2ccc([N+](=O)[O-])cc21 | < 3.97 | 5.00 | 
47 | COc1nc2c(nc(N)n2C2OC(CO)C(O)C(O)C2O)c(=O)[nH]1 (centres undefined) |  |  | inactive
48 | O=C(O)CNCc1c2ccccc2nc2ccccc12 |  |  | inactive
49 | CSc1n[nH]c2c1c(C)nn2-c1ccccc1 | < 3.70 | 4.02 | 
50 | NCc1ccccc1C1CSCSC1 | < 3.24 | 3.54 | 
51 | FC(F)(F)c1cccc(C2SCc3nc4ccccc4n32)c1 (centres undefined) |  |  | inactive
52 | COC(=O)c1cncc2c1CC1C3(C(=O)OC)C=NC(C4C(CO)=CCC43)C21C (centres undefined) |  |  | inactive
53 | CC(C)OC(=O)C(NC(=O)C(CC(=O)OCc1ccccc1)NC(=O)OCc1ccccc1)NC(=O)C1C(C)(C)CCC1(C)C (centres undefined) | < 3.70 | 4.90 | 
54 | Nc1ccc(C(=O)NN2C(=O)C(Cl)C2c2ccccc2Cl)cc1 (centres undefined) | < 3.70 | 5.48 | 
55 | O=C1NNC2CCCCC2O1 (centres undefined) | < 2.94 | < 2.94 | 
56 | CCCCCCCCCCCCN1C=C(C(N)=O)C(S(=O)(=O)O)c2ccccc21 (centres undefined) | 5.18 | 4.60 | 
57 | Nc1ccc(C(=O)Nc2ccc(/C=C/c3ccc(NC(=O)c4ccc(N)cc4S(=O)(=O)O)cc3S(=O)(=O)O)c(S(=O)(=O)O)c2)c(S(=O)(=O)O)c1 | 4.65 | 4.05 | 
58 | C[C@@H]1CC[C@@]2(OC1)O[C@H]1C[C@H]3[C@@H]4CC[C@H]5C[C@@H](OC6OC(CO)C(OC7OC(CO)C(O)C(OC8OCC(O)C(O)C8O)C7OC7OC(CO)C(O)C(O)C7O)C(O)C6O)CC[C@]5(C)[C@H]4CC[C@]3(C)[C@H]1[C@@H]2C (some centres undefined) | < 4.00 | 5.21 | 
59 | COc1ccc(N(CN2C(=O)CCC2C(=O)O)C(C)=O)cc1 (centres undefined) |  |  | inactive
60 | CCOC(=O)C(NC(=O)c1ccccc1)(Nc1cc(C)on1)C(F)(F)F (centres undefined) | < 3.70 | < 3.70 | 
61 | CC1CC(C)(C)N2CCC(C(=O)N3Cc4cc5ccccc5nc4C3)C2O1 (centres undefined) | < 3.70 | < 3.70 | 
62 | CC(=O)OC1C(OC(C)=O)[C@@]2(C)C(C(O)[C@@H]3C2C(C)C=C2OC(=O)[C@@](C)(O)[C@@]23C)[C@H]2C1[C@]1(C)C(C[C@@H]3O[C@@H]3C1OC(C)=O)C(=O)[C@@H]2O (some centres undefined) |  |  | inactive
63 | CN(CCO)CNC(=O)C1=C(O)C2(O)C(=O)C3=C(O)c4c(O)cccc4C(C)(O)C3CC2C(N(C)C)C1=O (centres undefined) | < 3.75 | < 3.75 | 

Row | SMILES | pEC50 | pIC50 | outcome
64 | Cc1coc(NS(=O)(=O)c2ccc(N=Nc3c(N)n(C)c(=O)n(C)c3=O)cc2)c1C |  |  | inactive
65 | C/C(=N\N)C(CN1CCCCC1)C(c1ccccc1)c1c(O)c2ccccc2oc1=O (centres undefined) | < 3.97 | 4.16 | 
66 | CC(=O)OCC1OC(OC(C)=O)C(Nc2ncc(-c3ccc(C)cc3)s2)C(OC(C)=O)C1OC(C)=O (centres undefined) | < 3.70 | 4.88 | 
67 | Nc1onc2c1Cc1c(noc1N)-c1ccccc1-2 | < 3.70 | 3.78 | 
68 | COc1cccc(-c2cc(=O)c3cc(C)c(C)c(C(=O)O)c3o2)c1 |  |  | inactive
69 | Nn1c(-c2cccc(Cl)c2)nc2ccccc2c1=O |  |  | inactive
70 | O=C(ON=C1c2ccccc2C(Br)C(Br)c2ccccc21)c1ccccc1 (centres undefined) | < 3.70 | 5.48 | 
71 | O=[N+]([O-])c1ccc(Cl)c([N+](=O)[O-])c1 | < 3.70 | 5.48 | 
72 | Cc1[nH]c(=O)nc(NCCNCCO)c1C(=O)Nc1cccc2cc3ccccc3cc12 | < 3.70 | < 3.70 | 
73 | CN(C)c1ccc(/C=C/C(=O)C(C)(C)C)cc1 |  |  | inactive
74 | OC1(c2ccccc2)C2CCN(CC2)C1CN1CCOCC1 (centres undefined) | < 3.70 | < 3.70 | 
75 | CNC(=S)NC1CCCCC1NC(=S)NC (centres undefined) | < 3.16 | < 3.16 | 
76 | Cc1c(C(=O)CSc2nc3ccccc3[nH]2)c(=O)n(-c2ccccc2)n1C | < 4.02 | < 4.02 | 
77 | COc1c(O)c2c3c(cc(C)cc3c1C(C)C)OC2 | < 4.55 | < 4.55 | 
78 | CC(C)(C)c1cc(C(O)(C(F)(F)F)C(F)(F)F)c2c(c1)C(C(F)(F)F)(C(F)(F)F)OC(c1ccccc1)(C(C)(C)C)N2 (centres undefined) |  |  | inactive
79 | Cc1ccc(S(=O)(=O)NNC(=O)c2cc(C(=O)NNS(=O)(=O)c3ccc(C)cc3)c(C)nc2C)cc1 | < 3.70 | 3.79 | 
80 | CCOC(=O)c1c(NS(=O)(=O)c2ccccc2)sc2c1CCCC2 |  |  | inactive
81 | CCCCOC(=O)CC(C(=O)OCCCC)C(C(=O)OCCCC)P(=O)(OCCCC)OCCCC (centres undefined) | < 4.58 | 4.76 | 
82 | O=Nc1sc(=S)n(N2CCCCC2)c1O | < 3.70 | 3.98 | 
83 | OCC1COc2cc(Cl)c(Cl)cc2O1 (centres undefined) | < 3.70 | 3.92 | 

From PubChem BioAssay AID179 (DTP/NCI, 2004)
